The subject of one data set is DLD-1. Briefly: Cytotoxicity against human DLD-1 cells assessed as cell growth inhibition measured after 24 hrs by MTT assay. The following applies: DLD-1, 24 h. It counts as functional, cell-based.
A short description of data set [1]: Cytotoxicity against HEK293 cells assessed as cell growth inhibition measured after 24 hrs by MTT assay. Format: toxicity, cell-based. As to conditions: human. (In general: Formazan colour is commonly taken as a measure of viable cells.)
The nature of data set [2]: Cytotoxicity against human HaCaT cells assessed as cell growth inhibition measured after 24 hrs by MTT assay. It counts as toxicity, cell-based.
Data set [3] deals with HepG2. Kind of data set: Antiproliferative activity against human HepG2 cells assessed as cell growth inhibition measured after 48 hrs by MTT assay. It counts as functional, cell-based. The following applies: HepG2, 48 h.
The subject of another data set is HCT-116. Briefly: Antiproliferative activity against human HCT-116 cells assessed as cell growth inhibition measured after 48 hrs by MTT assay. It counts as functional, cell-based. As to conditions: HCT-116, 48 h.
Data set [4] concerns HeLa. Briefly: Antiproliferative activity against human HeLa cells assessed as cell growth inhibition measured after 48 hrs by MTT assay. It counts as functional, cell-based.
In a further data set the test system is OVCAR-3. Kind of data set: Antiproliferative activity against human OVCAR-3 cells assessed as cell growth inhibition measured after 48 hrs by MTT assay. Format: functional, cell-based. As to conditions: OVCAR-3, 48 h.
For the next data set, the system named is PA-1. Kind of data set: Antiproliferative activity against human PA-1 cells assessed as cell growth inhibition measured after 48 hrs by MTT assay. Format: functional, cell-based. As to conditions: PA-1, 48 h.
The subject of another data set is DU-145. Briefly: Antiproliferative activity against human DU-145 cells assessed as cell growth inhibition measured after 48 hrs by MTT assay. Format: functional, cell-based. The following applies: DU-145, 48 h.
Data set [5] can be described thus: Cytotoxicity against mouse 3T3-L1 cells assessed as cell growth inhibition measured after 72 hrs by MTT assay. Format: toxicity, cell-based.
The nature of data set [6]: Cytotoxicity against human MCF-10A cells assessed as cell growth inhibition measured after 72 hrs by MTT assay. Format: toxicity, cell-based.
Data set [7] deals with HeLa. Briefly: Cytotoxicity against human HeLa cells assessed as cell growth inhibition measured after 72 hrs by MTT assay. Format: functional, cell-based. The following applies: pooled result: one value given for 3 cell lines, strains, targets or settings.
The test system of data set [8] is HepG2. Briefly: Cytotoxicity against human HepG2 cells assessed as cell growth inhibition measured after 72 hrs by MTT assay. It counts as functional, cell-based. The following applies: HepG2, 72 h.
In data set [9] the test system is MDA-MB-231. Kind of data set: Cytotoxicity against human MDA-MB-231 cells assessed as cell growth inhibition measured after 72 hrs by MTT assay. It counts as functional, cell-based. The following applies: MDA-MB-231, 72 h.
Data set [10] concerns MCF7. Briefly: Cytotoxicity against human MCF7 cells assessed as cell growth inhibition measured after 72 hrs by MTT assay. It counts as functional, cell-based. As to conditions: MCF7, 72 h.
In data set [11] the test system is HeLa. Briefly: Antiproliferative activity against human HeLa cells assessed as cell growth inhibition by MTT assay. It counts as functional, cell-based.
Data set [12] has as its system HeLa. Briefly: Potency index, ratio of cisplatin IC50 to compound IC50 for antiproliferative activity against human HeLa cells by MTT assay. It counts as functional.
For another data set, the system named is SMMC-7721. Briefly: Cytotoxicity against human SMMC-7721 cells assessed as cell growth inhibition measured after 48 hrs by MTT assay. It counts as functional, cell-based. As to conditions: SMMC-7721, 48 h.
The next data set has as its system Hep 3B2. Briefly: Cytotoxicity against human Hep3B cells assessed as cell growth inhibition measured after 48 hrs by MTT assay. It counts as functional, cell-based.
Data set [13] is described as follows: Cytotoxicity activity against African green monkey vero cells assessed as cell growth inhibition measured after 72 hrs by MTT assay. It counts as toxicity, cell-based, Chlorocebus sabaeus.
For a further data set, the system named is K562. Briefly: Cytotoxicity activity against human K562 cells assessed as cell growth inhibition measured after 72 hrs by MTT assay. Format: functional, cell-based. As to conditions: K562, 72 h.
Data set [14] in a line: Cytotoxicity activity against human PBMC cells assessed as cell growth inhibition measured after 72 hrs by MTT assay. Format: toxicity, cell-based.
A short description of data set [15]: Cytotoxicity against human HFB4 cells assessed as cell growth inhibition measured after 24 hrs by MTT assay. It counts as toxicity, cell-based.
In data set [16] the test system is MCF7. Briefly: Anticancer activity against human MCF7 cells assessed as cell growth inhibition measured after 24 hrs by MTT assay. Format: functional, cell-based. The following applies: MCF7, 24 h.
Data set [17] deals with Urokinase-type plasminogen activator (Homo sapiens, UniProt P00749). Kind of data set: Inhibition of urokinase plasminogen activator in human MCF7 cells measured after 24 hrs by ELISA method. Format: cell-based. For orientation: ELISA stands for enzyme-linked immunosorbent assay.
In a further data set the test system is KYSE-410. Kind of data set: Antiproliferative activity against human KYSE-410 cells assessed as cell growth inhibition measured after 48 hrs by CCK-8 assay. It counts as functional, cell-based. The following applies: KYSE-410, 48 h.
For a further data set, the system named is KYSE-140. Briefly: Antiproliferative activity against human KYSE-140 cells assessed as cell growth inhibition measured after 48 hrs by CCK-8 assay. It counts as functional, cell-based. The following applies: KYSE-140, 48 h.
A short description of data set [18]: Antiproliferative activity against human KYSE-170 cells assessed as cell growth inhibition measured after 48 hrs by CCK-8 assay. The following applies: KYSE-170, 48 h. Format: functional, cell-based.
The test system of the next data set is KYSE-30. Briefly: Antiproliferative activity against human KYSE-30 cells assessed as cell growth inhibition measured after 48 hrs by CCK-8 assay. It counts as functional, cell-based. As to conditions: KYSE-30, 48 h.
Another data set concerns KYSE-510. Kind of data set: Antiproliferative activity against human KYSE-510 cells assessed as cell growth inhibition measured after 48 hrs by CCK-8 assay. Format: functional, cell-based. As to conditions: KYSE-510, 48 h.
In data set [19] the test system is A549. Kind of data set: Antiproliferative activity against human A549 cells assessed as cell growth inhibition measured after 72 hrs by SRB assay. Format: functional, cell-based. The following applies: A549, 72 h. A general note: In SRB staining, fixed cells bind dye roughly in proportion to their protein.
A short description of data set [20]: Cytotoxicity against human NHDF cells assessed as cell growth inhibition measured after 72 hrs by SRB assay. Format: toxicity, cell-based.
The test system of the next data set is A498. Briefly: Antiproliferative activity against human A498 cells assessed as cell growth inhibition measured after 72 hrs by SRB assay. The following applies: A498, 72 h. Format: functional, cell-based.
Data set [21] deals with MDA-MB-231. Kind of data set: Antiproliferative activity against human MDA-MB-231 cells assessed as cell growth inhibition measured after 72 hrs by MTT assay. Format: functional, cell-based. The following applies: MDA-MB-231, 72 h.
In data set [22] the test system is MCF7. Briefly: Antiproliferative activity against human MCF7 cells assessed as cell growth inhibition measured after 72 hrs by MTT assay. It counts as functional, cell-based. The following applies: MCF7, 72 h.
Data set [23] concerns MCF7. Briefly: Anticancer activity against human MCF7 cells assessed as cell growth inhibition measured after 48 hrs by MTT assay. The following applies: MCF7, 48 h. Format: functional, cell-based.
Data set [24] concerns A549. Kind of data set: Anticancer activity against human A549 cells assessed as cell growth inhibition measured after 48 hrs by MTT assay. It counts as functional, cell-based. The following applies: A549, 48 h.
A short description of data set [25]: Antiproliferative activity against human Lu1 cells assessed as cell growth inhibition by MTT assay. Format: functional, cell-based.
The test system of data set [26] is HepG2. Kind of data set: Antiproliferative activity against human HepG2 cells assessed as cell growth inhibition by MTT assay. It counts as functional, cell-based.
Another data set deals with SW480. Kind of data set: Antiproliferative activity against human SW480 cells assessed as cell growth inhibition by MTT assay. It counts as functional, cell-based.
Data set [27] is described as follows: Antiproliferative activity against mouse […] cells assessed as cell growth inhibition by MTT assay. It counts as functional, cell-based.

The text below walks through data of ChEMBL document CHEMBL5126512, “Current status of carbazole hybrids as anticancer agents” (Eur J Med Chem, 2022).

Each structure is given as a SMILES string. Where only a bound is given, the exact number is not on record here.

Take `COc1ccc2c(c1)[nH]c1c3c(c(C)cc12)OC(C)(C)C=C3`: the IC50 – broadly, the concentration needed to halve the response being measured – in the data set with DLD-1 worked out at 17.9 µM. The IC50 at 24 h in data set [1] and in [2] was more than 100 µM throughout.
Take `COc1ccc2[nH]c3c4c(c(C)cc3c2c1)OC(C)(C)C=C4` [KOENIMBINE]: the IC50 in the data set on HepG2 [3], in the data set with HCT-116, in the data set on HeLa [4], with OVCAR-3, with PA-1 and in the data set with DU-145 was 200 nM each time.
For `COc1cc(NC(=O)Nc2cc(C)c3[nH]c4ccc(C)cc4c3c2C)cc(OC)c1OC`, the 50% inhibitory concentration (IC50) at 72 h in data set [5] came to 141 µM; in data set [6], 210 µM. The IC50 with HeLa [7], in the data set on HepG2 [8], in the data set on MDA-MB-231 [9] and with MCF7 [10] was 1930 nM throughout.
Regarding `CCCCCCCCn1c2ccc(/C=C/C(=O)c3ccccc3[N+](=O)[O-])cc2c2cc(C(C)=O)ccc21`, the IC50 with HeLa [11] worked out at 5.64 µM. For the same compound, in the data set with HeLa [12], the “Ratio IC50” value was found to be 2.
Consider `COc1cccc2c1C(=O)c1c(O)c3c(c(O)c1C2=O)C[C@@](O)(C(=O)CO)C[C@@H]3O[C@H]1C[C@H](N)[C@H](O)[C@H](C)O1` [DOXORUBICIN], for which the IC50 with SMMC-7721 and in the data set on Hep 3B2 was 1020 nM each time.
Consider `Cc1c2ccncc2c(C)c2c1[nH]c1c(S(=O)(=O)O)cc(Br)cc12`, for which the IC50 at 72 h in [13] and in data set [14] was more than 100 µM in each case. Moreover, the IC50 in the data set with K562 was determined as 35 µM.
With `c1cncc(C2c3[nH]c4ccccc4c3C(c3cccnc3)c3[nH]c4ccccc4c32)c1` (stereo unspecified), the IC50 at 24 h in [15] is 80 µM. Besides, the IC50 in the data set with MCF7 [16] was 4 µM; in data set [17] it was 2700 nM.
For `COc1ccc(NS(=O)(=O)c2ccc3c(c2)c2cc(O)ccc2n3C)c(OC)n1`, the IC50 (with KYSE-410; in the data set with KYSE-140; in data set [18]; in the data set with KYSE-30; with KYSE-510) was 10 nM throughout.
As to `Cc1c2ccncc2c(C(=O)NCCN(C)C)c2c3cc(CO)ccc3n(C)c12`, the values for the IC50 in the data set with A549 [19] and in the data set on A498 were 650 nM and 780 nM, respectively. The IC50 at 72 h in data set [20] was found to be 7.33 µM.
As for `C[N+](C)(C)CCN1CCN(CCCCCCn2c3ccccc3c3cc(Cl)ccc32)CC1`, the IC50 with MDA-MB-231 [21] and in the data set on MCF7 [22] was 4.4 µM throughout.
As to `O=C1c2[nH]c3ccc(Cl)cc3c2CC[C@@]12[C@@H](c1ccc(Cl)cc1)C1CSCN1C21c2ccccc2-c2nc3ccccc3nc21` (stereo partly specified), the figures for the IC50 in the data set on MCF7 [23] and with A549 [24] were 21 µM and 20 µM, respectively.
For the compound `COc1cc2c(cc1C)c1ccccc1n2CC(O)CN1CCN(C)CC1` (stereo unspecified), the IC50 (in [25]; with HepG2 [26]; in the data set on SW480; in data set [27]) was 3.99 µM each time.
